Read-outs that look alike come from different tables or passages of the source.
Experiments:
[1] = Pharmacokinetic test in rats (gavage 3 mg/kg, intravenous 1 mg/kg); type: in vivo; conditions: rat, plasma, SD rats; for AUC: read-out: Curve area AUC; for half-life: read-out: Half life T1/2 (converted)
Experimental: Test Example 2: Pharmacokinetic Test of Compounds of the present invention in Rats
(§1) To study in vivo pharmacokinetic behaviors of the compounds of the present invention in rats, and evaluate pharmacokinetic characteristics thereof.
An appropriate amount of sample was weighed, and ultrasonically prepared into a 0.3 mg/mL suspension for the gavage administration group; and was prepared into a 0.2 mg/mL suspension for the intravenous administration group as per a formula of 5% DMSO+10% Solutol+85% (20% SBE-β-CD).
SD rats were fasted overnight, and then administered by gavage at a dosage of 3 mg/kg and by intravenous injection at a dosage of 1 mg/kg, respectively.
0.1 mL of blood was collected before administration and at 5 min, 15 min, 30 min, 1 h, 2 h, 4 h, 8 h, and 24 h after administration, transferred into heparinized tubes, and centrifuged at 3500 rpm for 10 min to separate the plasma, which was stored at −20° C. 4 h after administration, the animals were resumed for feeding/free access to water.
Contents of the test compounds in plasma of the rats after gavage administration were determined by LC/MS/MS.

human NK-3 receptor = biological target: T1, human NK-3 receptor (Homo sapiens, UniProt P29371); test: Antagonistic activity on human NK-3 receptor in human NK-3R/HEK293 stably transfected cells (Fluo-4, FLIPR, Neurokinin B as agonist); type: cell-based; conditions: human NK-3R/HEK293 cells
T1 construct: expressed in transfected cells; host or cells: HEK293
T1 sequence (P29371 1-465): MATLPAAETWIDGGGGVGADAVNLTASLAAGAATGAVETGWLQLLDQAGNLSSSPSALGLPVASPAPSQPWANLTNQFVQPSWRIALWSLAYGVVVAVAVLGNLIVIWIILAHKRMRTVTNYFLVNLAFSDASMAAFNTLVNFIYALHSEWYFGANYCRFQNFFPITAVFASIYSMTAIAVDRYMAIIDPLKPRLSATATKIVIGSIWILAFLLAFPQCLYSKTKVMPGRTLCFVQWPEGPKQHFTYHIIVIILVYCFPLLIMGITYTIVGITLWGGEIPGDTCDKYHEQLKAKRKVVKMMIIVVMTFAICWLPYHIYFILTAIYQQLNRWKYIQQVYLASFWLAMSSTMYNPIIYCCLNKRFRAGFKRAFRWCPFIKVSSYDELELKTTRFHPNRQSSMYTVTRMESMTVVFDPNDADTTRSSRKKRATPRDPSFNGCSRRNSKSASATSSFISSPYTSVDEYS
Outline: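 HEK293 cells stably expressing human NK-3R loaded with Component A dye 2 h at 37° C, then preincubated with serially 3-fold diluted compound 30 min at 25° C. Neurokinin B (2.5 nM, 6× stock) added on FLIPR Tetra to read calcium signal. IC50 from inhibition curves versus reference agonist.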

MDR1 = test: In vitro brain model test: MDR1-MDCKII bidirectional permeability; type: in vitro ADME; conditions: dog
Experimental: The test product was diluted from dimethyl sulfoxide stock solution to a concentration of 2 μM (dimethyl sulfoxide <1%) with a transfer buffer (HBSS containing 10 mM Hepes, pH7.4); and was applied to apical or basolateral cavities of the cell monolayer. Penetration of the test compound from the direction A to the direction B or from the direction B to the direction A was determined in duplicate. Digoxin was detected at 10 μM in the direction of A-B, or detected in the direction of B-A, while Nadolol and Metoprolol were detected at 2 μM in the direction of A-B in duplicate. The plate was cultivated in a CO2 incubator at 37±1° C. for 2.5 h with 5% CO2 at a saturated humidity without shaking. Further, the efflux rate of each compound was also determined. According to the peak area ratio of analyte/IS, the test product and the control product were quantitatively analyzed by LC-MS/MS.
After the transfer test, the monolayer integrity of cells was determined by a lucifer yellow exclusion assay. Buffer was removed from apical and basolateral cavities, and then 75 μL of 100 μM lucifer yellow and 250 μL of transfer buffer were added into the apical and basolateral cavities, respectively. The culture dish was cultivated at 37° C., 5% CO2, and saturated humidity for 30 min without shaking. After incubation for 30 min, 20 μL of lucifer yellow sample was extracted from the top, and then 60 μL of the transfer buffer was added. Then, 80 μL of lucifer yellow sample was extracted basolaterally. Relative Fluorescence Units (RFU) of lucifer yellow were measured at 425/528 nm (excitation/emission) with an Envision plate reader.

[2] = Pharmacokinetic test in rats: plasma and brain concentration after gavage 3 mg/kg; type: in vivo; conditions: rat, oral, SD rats
Experimental: Test Example 4: Pharmacokinetic Test of Compounds of the Present Invention in Rats
as §1
An appropriate amount of sample was weighed, and ultrasonically prepared into a 0.3 mg/mL suspension for the gavage administration group as per a formula of 5% DMSO+10% Solutol+85% (20% SBE-β-CD).
SD rats were fasted overnight, and then administered by gavage at a dosage of 3 mg/kg respectively.
Blood and cerebrospinal fluid were collected at designed time points after administration, and then brain tissue was collected after cardiac perfusion with normal saline. Plasma was collected by centrifugation within 1 h, and then immediately transferred onto wet ice. Centrifugation conditions: 4-10° C., 8,000 rpm, 6 min. 4 h after administration, the animals were resumed for feeding/free access to water.
The concentrations of corresponding compounds in plasma and cerebrospinal fluid were detected by LC-MS/MS.

[3] = MDCK-MDR1, pH 7.4, 2 μM, 2.5 h, pH7.4

- bioavailability ([1]; po, gavage 3 mg/kg vs intravenous 1 mg/kg, read-out: Oral bioavailability F (%)): 58.4%
- Cmax ([1]; po, gavage 3 mg/kg, read-out: Blood concentration Cmax): 494 ± 70.6 ng/mL
- AUC ([1]; po, gavage 3 mg/kg): 9860 ± 3550 ng·h/mL
- half-life ([1]; po, gavage 3 mg/kg): 11.7 ± 7.72 h
- AUC ([1]; intravenous injection 1 mg/kg): 5170 ± 581 ng·h/mL
- half-life ([1]; intravenous injection 1 mg/kg): 11.8 ± 3.54 h
- IC50 (human NK-3 receptor): 14.5 nM
- Papp A→B at 2.5 h, 2 μM (MDR1; [3]): 18.3 ×10⁻⁶ cm/s
- Papp B→A at 2.5 h, 2 μM (MDR1; [3]): 14 ×10⁻⁶ cm/s
- efflux ratio at 2.5 h, 2 μM (MDR1; MDCK-MDR1, pH 7.4, B to A / A to B, read-out: Efflux rate): 0.77
- concentration at 0.5 h ([2]; brain, sampling time 0.5 h, read-out: Brain conc.): 2570 ± 178 ng/mL
- concentration at 2 h ([2]; brain, sampling time 2 h, read-out: Brain conc.): 1980 ± 232 ng/mL
- concentration at 8 h ([2]; brain, sampling time 8 h, read-out: Brain conc.): 2020 ± 406 ng/mL
- Kp at 0.5 h ([2]; brain/plasma, sampling time 0.5 h, read-out: B/P ratio): 3.25
- Kp at 2 h ([2]; brain/plasma, sampling time 2 h, read-out: B/P ratio): 3.66
- Kp at 8 h ([2]; brain/plasma, sampling time 8 h, read-out: B/P ratio): 3.36
- concentration at 0.5 h ([2]; plasma, sampling time 0.5 h, read-out: Plasma conc.): 798 ± 79.8 ng/mL
- concentration at 2 h ([2]; plasma, sampling time 2 h, read-out: Plasma conc.): 547 ± 94.5 ng/mL
- concentration at 8 h ([2]; plasma, sampling time 8 h, read-out: Plasma conc.): 598 ± 74.9 ng/mL
SMILES: Cc1nsc(-c2nc(-c3cc(F)ncc3F)c3n2CCN(C(=O)c2ccc(F)cc2)[C@@H]3C)n1 [Compound 077, (R)-(1-(2,5-difluoropyridin-4-yl)-8-methyl-3-(3-methyl-1,2,4-thiadiazol-5-yl)-5,6-dihydroimidazo[1,5-a]pyrazin-7 (8H)-yl)(4-fluorophenyl)methanone]

— US20240228501A1, “IMIDAZOLE-CONTAINING CONDENSED RING DERIVATIVE, PREPARATION METHOD THEREFOR, AND APPLICATION THEREOF IN MEDICINE” (CHANGCHUN GENESCIENCE PHARMACEUTICAL CO., LTD., priority 2021, published 2024)
